Reference: ChEMBL document CHEMBL5303304, “EUbOPEN Chemogenomics Library - IncuCyte” (2023)

Key:
Assay type in all cases: toxicity, cell-based
Fibroblast = experiment: Incucyte cell viability with human fibroblast; settings: 10 µM, compound concentration 10 uM
U2OS = experiment: Incucyte cell viability with U2OS; settings: human, 10 µM, compound concentration 10 uM
HEK-293T = experiment: Incucyte cell viability with HEK293T; settings: human, 10 µM, compound concentration 10 uM
Also: unitless GR value; below 1 slowed growth and below 0 cell loss.

Compound | Growth Rate (Fibroblast; 0 h, replicate number 1) | Growth Rate (Fibroblast; 0 h, replicate number 2) | Growth Rate (Fibroblast; 6 h, replicate number 2) | Growth Rate (Fibroblast; 12 h, replicate number 2) | Growth Rate (Fibroblast; 18 h, replicate number 1) | Growth Rate (Fibroblast; 18 h, replicate number 2) | Growth Rate (Fibroblast; 24 h, replicate number 2) | Growth Rate (U2OS; 6 h, replicate number 1) | Growth Rate (U2OS; 12 h, replicate number 1) | Growth Rate (U2OS; 12 h, replicate number 2) | Growth Rate (U2OS; 18 h, replicate number 1) | Growth Rate (U2OS; 24 h, replicate number 1) | Growth Rate (U2OS; 24 h, replicate number 2) | Growth Rate (HEK-293T; 0 h, replicate number 1) | Growth Rate (HEK-293T; 0 h, replicate number 2) | Growth Rate (HEK-293T; 24 h, replicate number 1) | Growth Rate (Fibroblast; 24 h, replicate number 1) | Growth Rate (U2OS; 0 h, replicate number 1) | Growth Rate (U2OS; 6 h, replicate number 2) | Growth Rate (U2OS; 18 h, replicate number 2) | also measured
NC1(c2ccc(-c3nc4c(O)ccnn4c3-c3ccccc3)cc2)CCC1 | -1 | -0.33 | 0.35 | 0.9 | 0.95 | 0.83 | 0.93 | 0.34 | 0.63 | 0.83 | 0.66 | 0.89 | 0.93 | -0.07 | -0.33 | 0.95 | – | – | – | – | Growth Rate (U2OS; 0 h, replicate number 2): -0.99
CN(C(=O)c1cnn2cccnc12)c1cc2c(cc1N1CCOCC1)C(=O)N(C[C@@H](F)C(C)(C)O)C2 | – | 0.71 | 0.95 | 0.89 | 0.7 | – | – | 0.54 | 0.98 | -0.78 | 0.75 | – | 0.85 | 0.82 | 0.66 | – | 0.82 | 0.99 | 0.75 | 0.92 | Growth Rate (Fibroblast; 6 h, replicate number 1): 0.38; Growth Rate (Fibroblast; 12 h, replicate number 1): 0.84; Growth Rate (HEK-293T; 6 h, replicate number 2): 0.77; Growth Rate (HEK-293T; 12 h, replicate number 2): 0.85; Growth Rate (HEK-293T; 18 h, replicate number 2): 1; Growth Rate (HEK-293T; 24 h, replicate number 2): 0.92
COc1ccccc1Nc1nc(-c2nn(Cc3c(F)cc(OCCCO)cc3F)c3ccccc23)ncc1OC | – | -0.85 | 0.53 | 0.41 | 0.85 | 0.58 | 0.85 | – | – | 0.93 | – | – | 0.96 | 0.17 | – | – | 0.77 | – | 0.89 | 1 | Growth Rate (Fibroblast; 6 h, replicate number 1): 0.3; Growth Rate (Fibroblast; 12 h, replicate number 1): 0.59
COc1cnccc1Nc1nc(-c2nn(Cc3c(F)cc(OCCO)cc3F)c3ccccc23)ncc1OC | – | – | 0.31 | 0.04 | -0.14 | -0.07 | -0.03 | -0.05 | -0.2 | 0.06 | -0.22 | -0.17 | 0.09 | -1 | -0.96 | – | -0.14 | -1 | -0.04 | 0.21 | Growth Rate (Fibroblast; 6 h, replicate number 1): -0.29; Growth Rate (Fibroblast; 12 h, replicate number 1): -0.23; Growth Rate (U2OS; 0 h, replicate number 2): -0.09; Growth Rate (HEK-293T; 6 h, replicate number 2): -0.05; Growth Rate (HEK-293T; 12 h, replicate number 2): -0.01; Growth Rate (HEK-293T; 18 h, replicate number 2): 0.13; Growth Rate (HEK-293T; 24 h, replicate number 2): 0.21
CN(C)CC#Cc1ccc2[nH]c3c(c2c1)-c1nc(N)ncc1CCC3 | -1 | – | – | 0.69 | 0.27 | 0.42 | 0.33 | – | 0.96 | 0.59 | 0.86 | 0.86 | 0.36 | -0.2 | 0.54 | 0.12 | 0.2 | -0.89 | 0.82 | 0.45 | Growth Rate (Fibroblast; 6 h, replicate number 1): 0.76; Growth Rate (Fibroblast; 12 h, replicate number 1): 0.45; Growth Rate (HEK-293T; 6 h, replicate number 1): -0.19; Growth Rate (HEK-293T; 6 h, replicate number 2): -0.58; Growth Rate (HEK-293T; 12 h, replicate number 1): -0.03; Growth Rate (HEK-293T; 12 h, replicate number 2): -0.38; Growth Rate (HEK-293T; 18 h, replicate number 1): 0.11; Growth Rate (HEK-293T; 18 h, replicate number 2): -0.23; Growth Rate (HEK-293T; 24 h, replicate number 2): -0.05
CCOc1ccc(S(=O)(=O)Nc2ccc(Cl)cc2C#Cc2cnc(C(=O)[O-])cc2OC)c2ncccc12.[K+] | -0.78 | – | 0.49 | 0.49 | 1 | 0.43 | 0.53 | – | 0.95 | -0.91 | 0.94 | – | 0.81 | 0.28 | -0.2 | 0.98 | 0.99 | -0.87 | 0.58 | -0.85 | Growth Rate (U2OS; 0 h, replicate number 2): 0.5; Growth Rate (HEK-293T; 6 h, replicate number 2): 0.66; Growth Rate (HEK-293T; 12 h, replicate number 2): 0.97; Growth Rate (HEK-293T; 18 h, replicate number 2): 0.87; Growth Rate (HEK-293T; 24 h, replicate number 2): 0.87
CCCS(=O)(=O)Nc1ccc(F)c(Nc2ncnc3cnc(-n4cnc(C)c4)nc23)c1F | -0.99 | – | 0.4 | 0.62 | 0.53 | 0.69 | 0.77 | 0.75 | 0.7 | 0.63 | 0.78 | 0.97 | 0.67 | -0.79 | – | 0.71 | 0.53 | – | 0.61 | 0.84 | Growth Rate (Fibroblast; 6 h, replicate number 1): 0.75; Growth Rate (Fibroblast; 12 h, replicate number 1): 0.52; Growth Rate (HEK-293T; 6 h, replicate number 2): 0.5; Growth Rate (HEK-293T; 12 h, replicate number 1): 0.77; Growth Rate (HEK-293T; 12 h, replicate number 2): 0.72; Growth Rate (HEK-293T; 18 h, replicate number 1): 0.75; Growth Rate (HEK-293T; 18 h, replicate number 2): 0.73; Growth Rate (HEK-293T; 24 h, replicate number 2): 0.8
CN1CC(=O)N(C)c2cnc(Nc3ccc(NC(=O)Nc4cccc(C(=O)O)c4)cc3)nc21 | -1 | -0.25 | – | 0.81 | – | 0.99 | – | 0.82 | 0.91 | 0.75 | 0.89 | 0.95 | 1 | -1 | – | 0.72 | – | -0.94 | 0.73 | 0.97 | Growth Rate (U2OS; 0 h, replicate number 2): 0.52; Growth Rate (HEK-293T; 18 h, replicate number 1): 0.83
C[S+]([O-])c1ccc(-c2nc(-c3cccc(I)c3)c(-c3ccncc3)[nH]2)cc1 (centres undefined) | – | – | 0.66 | – | – | – | – | – | – | 0.8 | 0.97 | 1 | 0.65 | -0.57 | -1 | 0.99 | – | -0.99 | 0.79 | 0.75 | Growth Rate (HEK-293T; 12 h, replicate number 1): 0.87; Growth Rate (HEK-293T; 18 h, replicate number 1): 0.99
CN(C)c1ccc(-c2cc3ncccc3c(OCCCCO)n2)cc1.O=C(O)C(F)(F)F | – | -0.45 | 0.29 | 0.37 | – | 0.6 | 0.65 | – | 0.85 | 0.55 | 0.66 | 0.91 | 0.64 | -0.94 | -0.26 | – | – | -1 | -0.83 | 0.67 | Growth Rate (HEK-293T; 24 h, replicate number 2): 0.87
COc1cc(C(N)=O)ccc1Nc1ncc2c(n1)N(CCC(C)C)[C@H](C)C(=O)N2C | -0.99 | -0.68 | – | – | – | – | 0.77 | – | -0.71 | 0.18 | 0.37 | -0.55 | 0.27 | -0.98 | -1 | 0.53 | – | -1 | 0.39 | 0.4 | –
O=C1NC(=NCc2cccs2)SC1=Cc1ccc2ncccc2c1 | -1 | -0.82 | – | – | – | – | – | 0.68 | 0.27 | 0.54 | 0 | 0.51 | 0.39 | -1 | -0.11 | 0.75 | – | -1 | 0.87 | 0.45 | Growth Rate (HEK-293T; 12 h, replicate number 2): 0.83; Growth Rate (HEK-293T; 18 h, replicate number 1): 0.84; Growth Rate (HEK-293T; 18 h, replicate number 2): 0.53; Growth Rate (HEK-293T; 24 h, replicate number 2): 0.54
O=C1CCCN1CCNc1nc(Nc2ccc(Cl)c(Cl)c2)ncc1C(F)(F)F | – | – | 0.95 | 0.41 | 0.65 | 0.48 | 0.45 | 0.32 | 0.24 | -0.25 | 0.25 | 0.37 | – | -0.87 | -1 | 0.78 | 0.64 | -1 | – | – | Growth Rate (Fibroblast; 12 h, replicate number 1): 0.62; Growth Rate (HEK-293T; 18 h, replicate number 1): 0.89
Cc1ccc(-n2nc(C(C)(C)C)cc2NC(=O)Nc2ccccc2F)cc1 | – | – | 0.02 | 0.82 | 0.86 | – | – | 0.9 | 0.91 | 0.72 | 0.79 | 0.72 | 0.85 | -0.4 | – | – | 0.91 | – | 0.67 | – | Growth Rate (Fibroblast; 6 h, replicate number 1): -0.08; Growth Rate (Fibroblast; 12 h, replicate number 1): 0.68; Growth Rate (U2OS; 0 h, replicate number 2): -0.52
